We go through nine molecules from US5118687A, “1-oxa-2-oxo-8-azaspiro(4,5)decane derivatives, pharmaceutical compositions containing them and process for preparing same” (Richter Gedeon Vegyeszeti Gyar Rt., priority 1989, dated 1992).

Experiment [1] has as its system rat brain synaptosomal preparation. Kind of experiment: Calcium uptake-inhibiting action: inhibition of potassium-stimulated 45Ca uptake in a rat brain synaptosomal preparation. Format: biochemical, rat (Wistar). To be noted: rat brain cortex synaptosomes; 60 mM potassium chloride stimulation; 34° C.; incubation 20 seconds; pH 7.4; read-out: IC50 (50% inhibition of the stimulated 45Ca uptake). From the text: The calcium uptake-inhibiting action of the novel compounds of formula (I) was studied on a rat brain synaptosomal preparation by using the method of P. H. Wu et al. [J. Neurochem. 39, 700 (1982)].
Wistar rats weighting 180 to 200 g were decapitated, their brains were collected in an ice-cold physiological saline solution, the cortex was removed and purified from the white substance. The tissue was homogenized in 10 volumes of 0.32M sucrose solution by using a glass-teflon potter. After centrifuging the homogenate at a rate of 1000×g at 4° C. for 10 minutes, the supernatant was further centrifuged at 10000×g for 20 minutes. The sediment was taken up in a 0.32M sucrose solution in such a way that the protein content of the preparation was adjusted to 20 mg/ml.
The medium (containing 112 mM of sodium chloride, 5 mM of potassium chloride, 1.3 mM of magnesium chloride, 1.2 mM of sodium dihydrogen phosphate, 1.2 mM of calcium chloride, 10 mM of glucose, 20 mM of IRIS buffer) used for the incubation was saturated with carbogen, consisting of 95% by volume of oxygen and 5% by volume of carbon dioxide, up to a pH of 7.4. After adding the test substances to the medium, the synaptosomal preparation was added in an amount corresponding to 1 mg of protein. The incubation was carried out in a final volume of 1 ml. The samples were pre-incubated at 34° C. for 20 minutes. The calcium uptake was begun by using a ^45 Cacl2 solution of 75 nCi activity. Potassium chloride used for investigating the potassium-induced ^45 Ca uptake was employed in 60 mM concentration whereas sodium chloride was added in the same concentration to the control samples. The incubation lasted 20 seconds. The reaction was stopped by 5 ml of a stopping solution containing 120 mM of sodium chloride, 5 mM of potassium chloride, 5 mM of EGTA and 20 mM of TRIS at pH 7.4. The samples were filtered through a Whatman GF/C filter paper and twice washed with 5 ml of a washing solution each, containing 132 mM of sodium chloride, 5 mM of potassium chloride, 1.3 mM of magnesium chloride, 1.2 mM of calcium chloride and 20 mM of IRIS at pH 7.4. (Abbreviations used above: TRIS means tris(hydroxymethyl)aminomethane; EGTA means ethylene glycol bis(β-aminoethyl) ether-N,N,N',N'-tetraacetic acid).
The filter papers were put into glass cuvets, 10 ml of a scintillation liquid each were added, then the radioactivity of the samples was measured in an 1219 Rackbeta (LKB Wallace) liquid scintillation spectrophotometer.
The IC50 values obtained by examination of the concentration/effect correlations are shown in Table I. IC50 value means the molar concentration of the test compounds which causes 50% inhibition of the stimulated ^45 Ca uptake.

In experiment [2] the test system is Male Hannover-Wistar rats. Kind of experiment: Potassium cyanide test: protective effect against histotoxic hypoxia. Format: in vivo, rat (Hannover-Wistar). To be noted: Rattus norvegicus, po, read-out: ED50 p.o. (dose protecting half of the treated animals from the hypoxia).
A further experiment deals with CFLP mice. The experiment in a line: Antihypoxic effect: asphyxial action in closed glass cylinder (method of Caillard et al.), survival time. Format: in vivo, mouse (CFLP). To be noted: 50 mg/kg oral, 60 minutes before test; n = 10; protected = surviving longer by 30% than average survival time of control group (23.5 ± 2.51 sec). On the procedure: The antiphypoxic effect was studied by using two methods. According to the method of C. Caillard et al. [Life Sci. 16, 1607 (1975)] the asphyxial action was determined after starvation for 16 hours on CFLP mice of both sexes weighting 24 to 26 g. Each animal was placed in a separate well-closed glass cylinder. The interval passing from closing the cylinder until the cessation of the last visible respiratory movement was registered as survival time. Animals, surviving longer by 30% than the average survival time of the control group, were considered to be protected. The test substances were administered in an oral dose of 50 mg/kg by 60 minutes before starting the examination.

The structures appear in SMILES notation. Where a name gives a salt, the structure may show the parent alone.

Regarding `C=C1N(CCCC)C(=O)OC12CCN(CCCC(c1ccc(F)cc1)c1ccc(F)cc1)CC2` [Compound 1, 1-Oxa-2-oxo-3-butyl-4-methylene-8-[4,4-bis(4-fluorophenyl)butyl]-3,8-diazaspiro[4,5]decane], the IC50 in experiment [1] amounted to 5.8 µM. Also, the ED50 in experiment [2] was determined as 40.9 mg/kg.
For `C=C1N(C(C)(C)C)C(=O)OC12CCN(CCCC(c1ccc(F)cc1)c1ccc(F)cc1)CC2` [Compound 2, 1-Oxa-2-oxo-3-tert-butyl-4-methylene-8-[4,4-bis(4-fluorophenyl)butyl]-3,8-diazaspiro[4,5]decane], the IC50 in experiment [1] stood at 5.9 µM. For the same molecule, the ED50 in experiment [2] came to 39.9 mg/kg.
Turning to `C=C1N(c2ccccc2)C(=O)OC12CCN(CCCC(c1ccc(F)cc1)c1ccc(F)cc1)CC2` [Compound 3, 1-Oxa-2-oxo-3-phenyl-4-methylene-8-[4,4-bis(4-fluorophenyl)butyl]-3,8-diazaspiro[4,5]decane], in experiment [1], the IC50 came to 2.1 µM.
For `C=C1N(C2CCCCC2)C(=O)OC12CCN(CCCC(c1ccc(F)cc1)c1ccc(F)cc1)CC2` [Compound 4, 1-Oxa-2-oxo-3-cyclohexyl-4-methylene-8-[4,4-bis(4-fluorophenyl)butyl]-3,8-diazaspiro[4,5]decane], the IC50 in experiment [1] stood at 5.3 µM. Moreover, in experiment [2], the 50% effective dose (ED50) is 37.9 mg/kg.
In the case of `CCCCN1C(=O)OC2(CCN(CCCC(c3ccc(F)cc3)c3ccc(F)cc3)CC2)C1(C)O` (stereo not drawn) [Compound 5, 1-Oxa-2-oxo-3-butyl-4-hydroxy-4-methyl-8-[4,4-bis(4-fluorophenyl)butyl]-3,8-diazaspiro[4,5]decane hydrochloride], the IC50 in experiment [1] turned out to be 6.1 µM.
In the experiment on CFLP mice, `CN1C(=O)OC2(CCN(CCc3ccc(F)cc3)CC2)C1(C)O` (stereo not drawn) [Compound 6, 1-Oxa-2-oxo-3,4-dimethyl-4-hydroxy-8-[2-(4-fluorophenyl)ethyl]-3,8-diazaspiro[4,5]decane] displayed a Protected animals of 60%.
`CCCN1C(=O)OC2(CCN(CCc3ccc(F)cc3)CC2)C1(C)O` (stereo not drawn) [Compound 7, 1-Oxa-2-oxo-3-propyl-4-hydroxy-4-methyl-8-[2-(4-fluorophenyl)ethyl]-3,8-diazaspiro[4,5]decane] displayed a Protected animals in the experiment with CFLP mice of 40%.
The same measure, in the same setting: next, `CC1(O)N(C2CCCCC2)C(=O)OC12CCN(CCc1ccc(F)cc1)CC2` (stereo not drawn) [Compound 8, 1-Oxa-2-oxo-3-cyclohexyl-4-hydroxy-4-methyl-8-[2-(4-fluorophenyl)ethyl]-3,8-diazaspiro[4,5]decane]: 60%; `CCN1C(=O)OC2(CCN(CCc3ccc(F)cc3)CC2)C1(C)O` (stereo not drawn) [Compound 9, 1-Oxa-2-oxo-3-ethyl-4-hydroxy-4-methyl-8-[2-(4-fluorophenyl)ethyl]-3,8-diazaspiro[4,5]decane]: 60%.
